# Results from patent US9260408B2, “Dihydroquinoline-2-one derivatives” (Hoffmann-La Roche Inc., priority 2011, dated 2016).
# Where a name gives a salt, the structure may show the parent alone.
# What was measured:
# human CYP11B2 = target: T1, human CYP11B2 (Homo sapiens, UniProt P19099); test: G-402 cellular enzyme assay, human CYP11B2 (aldosterone release, HTRF); assay type: cell-based; settings: G-402 cells expressing human CYP11B2; 1 μM Deoxycorticosterone
# T1 construct: expressed in transfected cells
# T1 sequence (P19099 25-503): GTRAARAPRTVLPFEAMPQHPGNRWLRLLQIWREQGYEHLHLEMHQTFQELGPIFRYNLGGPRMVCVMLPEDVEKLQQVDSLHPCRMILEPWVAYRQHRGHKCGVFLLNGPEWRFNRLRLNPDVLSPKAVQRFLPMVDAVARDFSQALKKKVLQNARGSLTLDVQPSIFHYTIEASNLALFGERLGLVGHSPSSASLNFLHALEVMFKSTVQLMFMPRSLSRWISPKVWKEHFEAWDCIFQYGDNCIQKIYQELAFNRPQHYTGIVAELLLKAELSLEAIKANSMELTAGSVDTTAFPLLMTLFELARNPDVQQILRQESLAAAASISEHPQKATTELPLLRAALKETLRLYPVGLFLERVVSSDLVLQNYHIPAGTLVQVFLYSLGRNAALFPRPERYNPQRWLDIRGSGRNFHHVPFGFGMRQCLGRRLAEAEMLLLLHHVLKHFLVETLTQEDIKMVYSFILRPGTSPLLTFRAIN
# Source text: (§1) Herein we identified the use of the G-402 cell line as a host cell to ectopically express (transiently or stably) enzymes of the CYP11 family. Specifically we developed stable G-402 cells expressing ectopically human CYP11B1, human CYP11B2, human CYP11A1, cynomolgus CYP11B1 or cynomolgus CYP11B2 enzyme activity. Importantly the identified cell line G-402 expresses co-factors (adrenodoxin and adrenodoxin reductase) important for the activity of the CYP11 family and no relevant enzyme activity of the CYP11 family (in comparison to H295R cells) was detected in these cells. Therefore the G-402 cell line is uniquely suited as a host cell for the ectopic expression of enzymes from the CYP11 family.
# (§2) G-402 cells can be obtained from ATCC(CRL-1440) and were originally derived from a renal leiomyoblastoma.
# (§3) The expression plasmids contains the ORF for either human/cyno CYP11B1 or CYP11B2 under the control of a suitable promoter (CMV-promoter) and a suitable resistance marker (neomycin). Using standard techniques the expression plasmid is transfected into G-402 cells and these cells are then selected for expressing the given resistance markers. Individual cell-clones are then selected and assessed for displaying the desired enzymatic activity using 11-Deoxycorticosterone (Cyp11B2) or 11-Deoxycortisol (Cyp11B1) as a substrate.
# (§4) G-402 cells expressing CYP11 constructs were established as described above and maintained in McCoy's 5a Medium Modified, ATCC Catalog No. 30-2007 containing 10% FCS and 400 μg/ml G418 (Geneticin) at 37° C. under an atmosphere of 5% CO2/95% air. Cellular enzyme assays were performed in DMEM/F12 medium containing 2.5% charcoal treated FCS and appropriate concentration of substrate (0.3-10 uM 11-Deoxycorticosterone, 11-Deoxycortisol or Corticosterone). For assaying enzymatic activity, cells were plated onto 96 well plates and incubated for 16 h. An aliquot of the supernatant is then transferred and analyzed for the concentration of the expected product (Aldosterone for CYP11B2; Cortisol for CYP11B1). The concentrations of these steroids can be determined using HTRF assays from CisBio analyzing either Aldosterone or Cortisol.
# (§5) Inhibition of the release of produced steroids can be used as a measure of the respective enzyme inhibition by test compounds added during the cellular enzyme assay. The dose dependent inhibition of enzymatic activity by a compound is calculated by means of plotting added inhibitor concentrations (x-axes) vs. measured steroid/product level (y-axes). The inhibition is then calculated by fitting the following 4-parameter sigmoidal function (Morgan-Mercer-Flodin (MMF) model) to the raw data points using the least squares method:
# (§6) [formula] wherein, A is the maximum y value, B is the EC50 factor determined using XLFit, C is the minimum y value and D is the slope value.
# (§7) EC50 values for compounds claimed herein were tested with the G402-based assay system described. Cyp11B2 enzyme activity was tested in presence of 1 μM Deoxycorticosterone and variable amounts of inhibitors; Cyp11B1 enzyme activity was tested in presence of 1 μM Deoxycortisol and variable amounts of inhibitors.
# human CYP11B1 = target: T2, human CYP11B1 (Homo sapiens, UniProt P15538); test: G-402 cellular enzyme assay, human CYP11B1 (cortisol release, HTRF); assay type: cell-based; settings: G-402 cells expressing human CYP11B1; 1 μM Deoxycortisol
# T2 construct: expressed in transfected cells
# T2 sequence (P15538 25-503): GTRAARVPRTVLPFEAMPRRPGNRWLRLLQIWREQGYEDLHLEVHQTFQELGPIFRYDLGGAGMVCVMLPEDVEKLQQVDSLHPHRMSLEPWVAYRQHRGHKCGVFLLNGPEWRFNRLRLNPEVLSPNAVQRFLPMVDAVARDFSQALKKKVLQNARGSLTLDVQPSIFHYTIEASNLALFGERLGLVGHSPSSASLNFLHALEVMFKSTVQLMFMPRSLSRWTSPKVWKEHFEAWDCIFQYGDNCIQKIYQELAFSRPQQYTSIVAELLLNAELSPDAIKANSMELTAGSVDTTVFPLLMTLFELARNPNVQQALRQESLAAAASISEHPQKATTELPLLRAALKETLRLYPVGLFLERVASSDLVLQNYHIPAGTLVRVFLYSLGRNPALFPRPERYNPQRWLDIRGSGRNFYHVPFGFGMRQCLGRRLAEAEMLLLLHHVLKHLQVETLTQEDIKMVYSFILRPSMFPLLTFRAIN
# Source text: as §1, §2, §3, §4, §5, §6, §7
Compound,EC50 (human CYP11B2) [nM],EC50 (human CYP11B1) [nM]
"CCS(=O)(=O)NC(c1cncc(-c2ccc3c(c2)CCC(=O)N3C)c1)C(C)C (racemic) [Example 176, (rac)-Ethanesulfonic acid {2-methyl-1-[5-(1-methyl-2-oxo-1,2,3,4-tetrahydro-quinolin-6-yl)-pyridin-3-yl]-propyl}-amide]",128,–
"CCS(=O)(=O)NC(c1cncc(-c2ccc3c(c2)CCC(=O)N3C)c1)C1CC1 (racemic) [Example 177, (rac)-Ethanesulfonic acid {cyclopropyl-[5-(1-methyl-2-oxo-1,2,3,4-tetrahydro-quinolin-6-yl)-pyridin-3-yl]-methyl}-amide]",117,8460
"CCS(=O)(=O)NC(C)c1cncc(-c2cc3c(cc2F)N(C)C(=O)CC3)c1 (racemic) [Example 178, (rac)-Ethanesulfonic acid {1-[5-(7-fluoro-1-methyl-2-oxo-1,2,3,4-tetrahydro-quinolin-6-yl)-pyridin-3-yl]-ethyl}-amide]",10,535
"CCC(NS(=O)(=O)CC)c1cncc(-c2ccc3c(c2)CCC(=O)N3C)c1 (racemic) [Example 180, (rac)-Ethanesulfonic acid {1-[5-(1-methyl-2-oxo-1,2,3,4-tetrahydro-quinolin-6-yl)-pyridin-3-yl]-propyl}-amide]",33,1890
"CCS(=O)(=O)N(C)C(C)c1cncc(-c2ccc3c(c2)CCC(=O)N3C)c1 (racemic) [Example 186, (rac)-Ethanesulfonic acid methyl-{1-[5-(1-methyl-2-oxo-1,2,3,4-tetrahydro-quinolin-6-yl)-pyridin-3-yl]-ethyl}-amide]",11,199
"CCN(C(C)c1cncc(-c2ccc3c(c2)CCC(=O)N3C)c1)S(=O)(=O)CC (racemic) [Example 187, (rac)-Ethanesulfonic acid ethyl-{1-[5-(1-methyl-2-oxo-1,2,3,4-tetrahydro-quinolin-6-yl)-pyridin-3-yl]-ethyl}-amide]",27,705
"CCC(=O)NC(C)c1cncc(-c2cc3c(cc2F)N(C)C(=O)CC3)c1 (racemic) [Example 213, (rac)-N-{1-[5-(7-Fluoro-1-methyl-2-oxo-1,2,3,4-tetrahydro-quinolin-6-yl)-pyridin-3-yl]-ethyl}-propionamide]",41,834
"CC(N[S@+]([O-])C(C)(C)C)c1cncc(-c2ccc3c(c2)CCC(=O)N3C)c1 (single isomer, unassigned) [Example 56, (R)-2-Methyl-propane-2-sulfinic acid {(S or R)-1-[5-(1-methyl-2-oxo-1,2,3,4-tetrahydro-quinolin-6-yl)-pyridin-3-yl]-ethyl}-amide]",40,587
"CC(N[S@+]([O-])C(C)(C)C)c1cncc(-c2ccc3c(c2)CCC(=O)N3C)c1 (single isomer, unassigned) [Example 57, (R)-2-Methyl-propane-2-sulfinic acid {(R or S)-1-[5-(1-methyl-2-oxo-1,2,3,4-tetrahydro-quinolin-6-yl)-pyridin-3-yl]-ethyl}-amide]",26,393
"CC(N)c1cncc(-c2ccc3c(c2)CCC(=O)N3C)c1 (single isomer, unassigned) [Example 64, 6-[5-((S or R)-1-Amino-ethyl)-pyridin-3-yl]-1-methyl-3,4-dihydro-1H-quinolin-2-one hydrochloride]",423,12300
"CC(N)c1cncc(-c2ccc3c(c2)CCC(=O)N3C)c1 (single isomer, unassigned) [Example 65, 6-[5-((R or S)-1-amino-ethyl)-pyridin-3-yl]-1-methyl-3,4-dihydro-1H-quinolin-2-one hydrochloride]",315,13100
"Cc1noc(C)c1C(=O)NC(C)c1cncc(-c2ccc3c(c2)CCC(=O)N3C)c1 (single isomer, unassigned) [Example 135]",6,163
"CCS(=O)(=O)NC(C)c1cncc(-c2ccc3c(c2)CCC(=O)N3C)c1 (single isomer, unassigned) [Example 173, Ethanesulfonic acid {(R or S)-1-[5-(1-methyl-2-oxo-1,2,3,4-tetrahydro-quinolin-6-yl)-pyridin-3-yl]-ethyl}-amide]",31,800
"CN1C(=O)CCc2cc(-c3cncc(C4(N[S@+]([O-])C(C)(C)C)COC4)c3)ccc21 [Example 54, (R)-2-Methyl-propane-2-sulfinic acid {3-[5-(1-methyl-2-oxo-1,2,3,4-tetrahydro-quinolin-6-yl)-pyridin-3-yl]-oxetan-3-yl}-amide]",–,3850
"CN1C(=O)CCc2cc(-c3cncc(O[C@H]4CCNC4)c3)ccc21 [Example 60, 1-methyl-6-[5-((S)-pyrrolidin-3-yloxy)-pyridin-3-yl]-3,4-dihydro-1H-quinolin-2-one hydrochloride]",685,–
"CN1C(=O)CCc2cc(-c3cncc(OC[C@@H]4CCCN4)c3)ccc21 [Example 66, 1-Methyl-6-[5-((S)-1-pyrrolidin-2-ylmethoxy)-pyridin-3-yl]-3,4-dihydro-1H-quinolin-2-one hydrochloride]",710,–
"COc1cc(C(=O)N2CC3(C2)CN(c2cncc(-c4ccc5c(c4)CCC(=O)N5C)n2)C3)on1 [Example 74, 6-{6-[6-(3-Methoxy-isoxazole-5-carbonyl)-2,6-diaza-spiro[3.3]hept-2-yl]-pyrazin-2-yl}-1-methyl-3,4-dihydro-1H-quinolin-2-one]",286,–
Cc1cc(Cl)cnc1C(=O)NCc1cncc(-c2ccc3c(c2)CCC(=O)N3C)c1 [Example 120],–,8
"CCS(=O)(=O)N(C)CCOc1cncc(-c2cc3c(cc2F)N(C)C(=O)CC3)c1 [Example 248, Ethanesulfonic acid {2-[5-(7-fluoro-1-methyl-2-oxo-1,2,3,4-tetrahydro-quinolin-6-yl)-pyridin-3-yloxy]-ethyl}-methyl-amide]",–,7
"CN1C(=O)CCc2cc(-c3cncc(C4CCN(C(=O)OC(C)(C)C)CC4)c3)ccc21 [Example 260, 5-(1-Methyl-2-oxo-1,2,3,4-tetrahydro-quinolin-6-yl)-3′,4′,5′,6′-tetrahydro-2′H-[3,4′]bipyridinyl-1′-carboxylic acid tert-butyl ester]",–,1
"CCS(=O)(=O)NCc1cncc(-c2cc(F)c3c(ccc(=O)n3C)c2)c1 [Example 263, Ethanesulfonic acid [5-(8-fluoro-1-methyl-2-oxo-1,2-dihydro-quinolin-6-yl)-pyridin-3-ylmethyl]-amide]",3100,–
